In US9546144B2, “Bifunctional compounds” (University of Pittsburgh—of the Commonwealth System of …, priority 2011, dated 2017):
In brackets after ≈: the same amount, converted by molar mass.

Assay: physchem
Conditions: aqueous buffer, kinetic from dmso stock
Method: General procedure for kinetic solubility measurements. A polypropylene tube was charged with PBS solution (490 μL). To the buffer was added a 10 mM stock solution of compound (10 μL). The tube was vortexed and equilibrated on an end-over-end rotator for 15 min at rt. Aliquots (400 μL) were filtered through 0.45 μm syringe filters and diluted to 5.0 mL with absolute MeOH. Concentrations were determined by UV/VIS analysis.
The test compounds were prepared at concentrations of 10 mM and added to the buffer at room temperature such that cosolvent concentration was fixed at 2%.

Structure (SMILES) | solubility kinetic at 15 min
COC(=O)Nc1nc2ccccc2[nH]1 [compound 10, carbendazim] | 140 ± 13 µM (≈ 26.8 µg/mL)
COC1=CC(=O)C[C@@H](C)[C@]12Oc1c(Cl)c(OC)cc(OC)c1C2=O [compound 11, griseofulvin] | 180 ± 13 µM (≈ 63.5 µg/mL)
